In US20260345654A1, “2,8-DIHYDROXYQUINOLINE GLUCURONIDE DERIVATIVES WITH ENHANCED PROPERTIES FOR USE AS ANTICANCER, ANTIVIRAL, ANTIMICROBIAL, AND OTHER THERAPEUTIC APPLICATIONS” (priority 2023, published 2026):
Entries after “also recorded” stand apart in the source; their conditions may differ. Like-named read-outs stand apart in the source and are kept apart here.

Columns and labels:
[1] = topical treatment of skin cancer; cited from earlier work
Solubility = conditions: for solubility of copper complex: aqueous solutions
[2] = system: A2780, A549 and MDA-MB-231 cells; conditions: cited from earlier work; for improvement with the addition of copper: with vs without copper
cancer cell lines = conditions: comparison Table 5; prior art compound; cited from earlier work
[3] = comparison Table 5; prior art compound; cited from earlier work
[4] = comparison Table 5; prior art compound; cited from earlier work; remark: listed apart in the source
[5] = In vitro anti-proliferation of commercial G8HQ; type: cell-based
Procedure: The present inventors obtained a commercial sample of G8HQ and tested it in vitro under conditions with copper added and found a possible reading of >500 uM IC 50, indicating no anti-proliferative activity, but such examination was cursory and not conclusive. Of further relevance, Oliveri 2012 designed an O-linked glucose adducts to the 8-hydroxy position of both 8HQ and CQ (FIG. 17). The resulting pro-drug form as expected abrogated the copper binding and eliminated the anti-cancer activity. […] The authors reasoned that the glucose adduct would improve solubility, and the glucose receptors over-populated on the surface of cancer cells. The anaerobic metabolism and high dependence on glucose that characterizes most cancers is a phenomenon known as the “Warburg Effect”.

RIF tumor = conditions: cited from earlier work
A549 cells = assay: In vitro anti-proliferation (CellTiter-Glo, 72 hr), A549; type: cell-based, human; conditions: Homo sapiens, A549, 72 h, 72 hr
Procedure: (§1) Commercially available 8HQ and freshly synthesized G2-8HQ were prepared for in vitro anti-proliferative studies against the following cell lines with and without the presence of 10 μM Cu(+2): (1) A549: […]; (2) BT-549: epithelial cells from ductal tumor; (3) DU-145: human prostate cancer; (4) PANC-1: pancreatic cancer; (5) SU.86.86: a new adoptive pancreatic cell for immunotherapy studies; (6) RL: non-Hodgkin's lymphoma; (7) LnCAP, Prostate cancer cell line; (8) A431, a squamous cell carcinoma line; and (9) UACC-62 a malignant melanoma cell line.
(§2) With regard to the study protocol used, the objective was to conduct a study of the cytotoxicity of W1469 against several cancer cell lines. In the study protocol, preparations for the A549 (Lung) cell line screen are given as an example. The following materials were used: (1) FBS (2) RPMI-1640 medium supplemented with 10% FBS:’ and (3) A549 Cells. The four samples tested are referred to as Items 1-4 below and were placed at 4 °C upon arrival. These four samples were as follows: • Item 1: Tube A (W1469) (500 uM when FBS added) • Item 2: Tube B (W1469g) (1000 uM when FBS added) • Item 3: Tube C (W1469) • Item 4: Tube D (W1469g)
Items 1 and 2 are sterile ready for the addition of 1 ml of sterile FBS. Final concentrations after addition of 1 ml: 500 μM for Tube A and 1000 μM for Tube B. Items 3 and 4 are described further below. In the protocol, media containing 10% FBS and 20 μM CuCl2 are used in Tubes C and D only. A and B are serially diluted in media with 10% FBS and no added copper.
The protocol method proceeds as follows:
Seed 2, 96-well plates of A549 cells with 5,000 cells per well in a total volume of 50 μL per well. Leave overnight. See plate layout below for which wells to seed with 100 μL of media for media control. The following day, cells are exposed to compounds as described below.
For Items 1 & 2, to make the 500 μM and 1000 μM Stocks of samples 1 and 2 (W1469 and W1469g): Add 1 ml of sterile FBS to each Tube A and Tube B, swirl to mix.
To make appropriate 2× final dilutions of sample 1, Tube A (W1469), the following amounts are used: • 500 μM: 10 mL as supplied • 100 μM: 2 mL 500 μM Sample+8 mL media • 30 μM: 3 mL 100 μM Sample+7 mL media • 10 μM: 3 mL 30 μM Sample+6 mL media • 3 μM: 3 mL 10 μM Sample+7 mL media • 1 μM: 3 mL 3 μM Sample+6 mL media • 0.3 μM: 3 mL 1 μM Sample+7 mL media • 0.1 μM: 3 mL 0.3 μM Sample+6 mL media
To make appropriate 2× final dilutions of sample 2, Tube B (W1469g), the following amounts are used: • 1000 μM: 10 mL as supplied • 300 μM: 3 mL 1000 μM Sample+7 mL media • 100 μM: 3 mL 300 μM Sample+6 mL media • 30 μM: 3 mL 100 μM Sample+7 mL media • 10 μM: 3 mL 30 μM Sample+6 mL media • 3 μM: 3 mL 10 μM Sample+7 mL media • 1 μM: 3 mL 3 μM Sample+6 mL media • 0.3 μM: 3 mL 1 μM Sample+7 mL media
For Items 3 & 4, the following protocol was used to make 1000 uM Stocks of samples 3 and 4 (W1469 and W1469g): • 1: Dissolve 3.37 mg W1469 and excipient (Tube C) in 1 ml RPMI medium without added FBS and copper and swirl briefly until completely dissolved. Add 9 ml of RPMI media containing 10% FBS and 20 uM copper. Swirl to mix. Sterile filter the 10 ml with provided syringes and filters. This is now the 1000 μM stock solution W1469 ready for screening • 2: Dissolve 3.2 mg W1469g and excipient (Tube D) in 1 ml RPMI medium without added FBS and copper and swirl briefly until completely dissolved. […] This is now the 1000 μM stock solution W1469g ready for screening. […]

BT-549 cells = assay: In vitro anti-proliferation (CellTiter-Glo, 72 hr), BT-549; type: cell-based; conditions: Homo sapiens, BT-549, 72 h, 72 hr, read-out: IC50
Procedure: as §1, §2
(§3) Add 50 μL of above 2× stocks to appropriate wells to expose appropriate cells to the final dilutions of samples. Add 50 μL media to media and cell control wells and 50 μL media mix to vehicle control wells. Cells are exposed for 72 hr. Following a 72 hr exposure to Sample, perform a CTG assay on all remaining plates.
(§4) At the end of the 72 hr exposure period, remove plates for CellTiter-Glo assay from 37 °C, 5% CO2 incubator and place on the bench at room temperature for 30 mins. Add 100 μL CellTiter-Glo reagent, mix for 2 mins, followed by a further 10 min incubation at room temperature. Record luminescence. Tables showing the resulting plate layouts are included below/

DU-145 cells = assay: In vitro anti-proliferation (CellTiter-Glo, 72 hr), DU-145; type: cell-based, human; conditions: Homo sapiens, DU-145, 72 h, 72 hr, read-out: IC50
Procedure: as §1, §2, §3, §4

PANC-1 cells = assay: In vitro anti-proliferation (CellTiter-Glo, 72 hr), PANC-1; type: cell-based; conditions: Homo sapiens, PANC-1, 72 h, 72 hr
Procedure: as §1, §2, §3, §4

SU.86.86 cells = assay: In vitro anti-proliferation (CellTiter-Glo, 72 hr), SU.86.86; type: cell-based; conditions: Homo sapiens, SU.86.86, 72 h, 72 hr, read-out: IC50
Procedure: as §1, §2, §3, §4

RL cells = assay: In vitro anti-proliferation (CellTiter-Glo, 72 hr), RL; type: cell-based; conditions: for IC50: 72 hr, read-out: IC50
Procedure: as §1, §2, §3, §4

Chemical stability = type: physicochemical
[6] = iodinated drug; cited from earlier work
[7] = +Cu (10 μM), G2-8HQ values based on MW of apo form (337)

CC(C)Cn1cnc2c(N)nc3ccccc3c21 [Zyclara, Alara (Imiquimod), Imiquimod]
Side Effects [1]: headache or backpain, Diarrhea; also recorded: Redness, bleeding or flaking skin, swelling,; also recorded: blistering, sting or pain. Fatigue or tiredness,

Oc1ccc2cccc(O)c2n1 [2-8HQ, 2,8-quinolinediol]
solubility (Solubility; water / aqueous): poor aqueous solubility; also recorded: insoluble in aqueous systems

NCC(=O)CCC(=O)O [Aminolaevulinic acid (Levulan), Aminolaevulinic acid]
Side Effects [1]: Burning, Itching or Tingling, Rash or redness; also recorded: Light sensitivity (bright lights/sunshine)

OC[C@H]1O[C@@H](Oc2c(I)cc(Cl)c3cccnc23)[C@H](O)[C@@H](O)[C@@H]1O [GluCQ, 5-chloro-7-iodo-8-quinolinyl-β-D-glucopyranoside]
enhancement of IC50 by copper ([2]; 20 μM Cu^+2): 9 ×
improvement with the addition of copper [2]: about 2 fold

O=C(O)[C@H]1O[C@@H](Oc2cccc3cccnc23)[C@H](O)[C@@H](O)[C@@H]1O [GA8HQ]
Active w/o Cu (cancer) (cancer cell lines): No
Solubility of Cu Complex/aqueous [3]: None, (8HQ poor)
Complexes w/copper [4]: No

O=C(O)[C@H]1O[C@@H](Oc2cccc3cccnc23)[C@H](O)[C@@H](O)[C@@H]1O [G8HQ, 8-quinolinyl beta-D-glucopyranosiduronic acid]
activity ([5]; in vitro, without acidification): no activity
IC50 ([5]; with copper added, cursory and not conclusive): > 500 µM
Active w/o Cu (cancer) (cancer cell lines): No
Solubility of Cu Complex/aqueous [3]: None
Complexes w/copper [4]: No
tumor uptake (RIF tumor; after acidification of tumors by hyperglycemia, mice): rapid and significantly increased
retention (RIF tumor; after tumor acidification, mice): prolonged retention in tumor and the colon over all other tissues
tumor or general tissue partitioning (RIF tumor; initial animal experiments, no acidification, mice): no significant tumor or general tissue partitioning
metabolic clearance / elimination time (RIF tumor; mice, post injection, listed as 8GHQ): 3 h

O=c1[nH]cc(F)c(=O)[nH]1 [Fluorouracil]
Side Effects [1]: tender skin, serious allergic reaction

Oc1cccc2cccnc12 [8HQ, 8-hydroxyquinoline, reference compound]
IC50 (A549 cells; [7]): 29 µM
IC50 (A549 cells; −Cu): 12.7 µM
IC50 (BT-549 cells; [7]): 24.5 µM
IC50 (BT-549 cells; −Cu): 9.9 µM
IC50 (DU-145 cells; [7]): 11.6 µM
IC50 (DU-145 cells; −Cu): 11.6 µM
IC50 (PANC-1 cells; [7]): 11.2 µM
IC50 (PANC-1 cells; −Cu): 9.3 µM
IC50 (SU.86.86 cells; [7]): 46 µM
IC50 (SU.86.86 cells; −Cu): > 50 µM
IC50 (RL cells; [7]): 70 nM
IC50 (RL cells; Homo sapiens, RL, 72 h, +Cu (10 μM), G2-8HQ values based on MW of apo form (337)): 60 nM
IC50 (RL cells; Homo sapiens, RL, 72 h, −Cu): 620 nM
increase of activity/cytotoxicity in presence of copper (RL cells; RL, +Cu^+2 (10 or 20 μM) vs −Cu): 9 fold
solubility (Solubility; DMSO): soluble
solubility (Solubility; water / aqueous): sparingly soluble
tissue levels of 8-OHQ (RIF tumor; all tissues, 2.0 to 24 hr after glucuronide injection, n = 3): These data points, with n = 3 animals, also failed to show significant tissue levels of 8-OHQ.
cytotoxicity change with addition of Cu^+2 ([2]; addition of Cu^+2 to the media): significantly increased the cytotoxicity
activity relative to CQ ([2]; unmodified 8HQ vs CQ): 9 to 27 ×

O=C(O)[C@H]1O[C@@H](Oc2ccc3cccc(O)c3n2)[C@H](O)[C@@H](O)[C@@H]1O.[Cu+2] [G2-8HQ copper complex]
stability of copper complex (Chemical stability; in excipient, 24 hours): precipitation after 24 hours
stability of copper complex (Chemical stability; pH values less than 8): rapid precipitated insoluble 2-8HQ copper complex
solubility of copper complex (Solubility): highly soluble in aqueous solutions

O=C(O)[C@H]1O[C@@H](Oc2cccc3c(I)ccnc23)[C@H](O)[C@@H](O)[C@@H]1O [4-iodo, 8-hydroxy beta-D-glucopyranosiduronic acid]
excretion [6]: mainly urinary

Oc1cccc2cccnc12.[Cu+2] [8HQ copper complex, reference compound]
solubility of copper complex (Solubility): aqueous insoluble

OC[C@H]1O[C@@H](Oc2cccc3cccnc23)[C@H](O)[C@@H](O)[C@@H]1O [Glu8HQ, 8-quinolinyl beta-D-glucopyranoside]
activity relative to Glu8CQ ([2]; 20 μM Cu^+2): 10 ×
enhancement of IC50 by copper ([2]; 20 μM Cu^+2): 18 ×
activity vs CQ analog ([2]; glucose derivatives, FIG. 18): greater activity than the CQ analog (GluCQ)
improvement with the addition of copper [2]: 10-20 fold
